Entries after “also recorded” stand apart in the source; their conditions may differ.
Columns and labels:
Format in all cases: in vivo
[1] = test system: patients who underwent percutaneous coronary intervention (PCI); experiment: Maximum periprocedural CK-MB in patients with adjunctive platelet aggregation inhibitor (study data of Example 1 re-examined); settings: adjunctive ASA 82 or 325 mg, eptifibatide, or clopidogrel 75 or 300 mg
Experimental: Study end points and definitions: The primary objective of the study was to evaluate the feasibility of treatment with P5P as a cardioprotective agent in high-risk elective PCI. The primary end point of infarct size was evaluated by the trapezoidal rule (Press W H, Teukolsky S A, Vetterling W T, Flannery B P. Numerical Recipes. Cambridge, UK: Cambridge University Press, 1994:127-133) using serial CK-MB enzyme measures performed at baseline and every 6 hours for 24 hours beginning immediately before initiation of PCI. The occurrence of myocardial ischemia within 24 hours after PCI was assessed as a secondary end point using continuous 12-lead electrocardiographic monitoring (Northeast Monitoring, Boston, Mass.). […] Area under the curve ST-segment deviation was measured from the onset of the first to the last contrast injection. […]

[2] = test system: patients who underwent percutaneous coronary intervention (PCI); experiment: 24-h continuous 12-lead electrocardiographic ST monitoring after PCI
Experimental: Methods—Study Overview: 60 patients who underwent percutaneous coronary intervention (PCI) at 4 centers were randomized in a 2:1 double-blinded fashion to treatment with P5P or placebo. […] Compliance and reasons for discontinued treatments were recorded for all patients.
(§1) Study end points and definitions: The primary objective of the study was to evaluate the feasibility of treatment with P5P as a cardioprotective agent in high-risk elective PCI. The primary end point of infarct size was evaluated by the trapezoidal rule (Press W H, Teukolsky S A, Vetterling W T, Flannery B P. Numerical Recipes. Cambridge, UK: Cambridge University Press, 1994:127-133) using serial CK-MB enzyme measures performed at baseline and every 6 hours for 24 hours beginning immediately before initiation of PCI. The occurrence of myocardial ischemia within 24 hours after PCI was assessed as a secondary end point using continuous 12-lead electrocardiographic monitoring (Northeast Monitoring, Boston, Mass.). […] Area under the curve ST-segment deviation was measured from the onset of the first to the last contrast injection. All cardiac markers and ST-segment monitoring data were analyzed by core laboratories blinded to treatment assignment (University of Maryland School of Medicine, Baltimore, Md.; Duke Ischemia Monitoring Laboratory, Durham, N.C.). […]

[3] = test system: patients who underwent percutaneous coronary intervention (PCI); experiment: Clinical safety (bleeding, transfusion, chemistries, coagulation, discontinuation)
Source text: (§2) Methods—Study Overview: 60 patients who underwent percutaneous coronary intervention (PCI) at 4 centers were randomized in a 2:1 double-blinded fashion to treatment with P5P or placebo. Inclusion criteria required prior determination for non-urgent PCI of a single-vessel lesion(s) and identification of ≧1 of the following clinical characteristics determining high risk for procedural-related ischemic complications (Califf R M, Abdelmeguid A E, Kuntz R E, Popma J J, Davidson C J, Cohen E A, Kleiman N S, Mahaffey K W, Topol E J, Pepine C J, et al. Myonecrosis after revascularization procedures. J Am Coll Cardiol 1998; 31:241-251; The ESPRIT Investigators. Novel dosing regimen of eptifibatide in planned coronary stent implantation: a randomised, placebo-controlled trial. Lancet 2000; 356:2037-2044): presence of an acute coronary syndrome (chest pain within 48 hours of PCI), recent AMI (≦7 days), diminished epicardial blood flow, angiographic thrombus, ejection fraction ≦30%, or vein graft lesion. In addition to any general contraindication to the PCI procedure or standard concomitant therapies, major exclusion criteria were creatine kinase (CK-MB) elevation above the upper limit of normal immediately before PCI, electrocardiographic evidence of atrial fibrillation or left bundle branch block, or evidence of any clinically significant abnormal laboratory finding (transaminases, bilirubin, or alkaline phosphatase >1.5 times the upper limit of normal or serum creatinine >1.8 mg/dl). Patients with elevated troponin measurements were permitted in the study provided that the peak troponin value was reported >24 hours before scheduled PCI, with documentation of a decreasing value before revascularization. After providing informed consent, patients randomized to treatment with P5P were administered enteric-coated P5P as a 10 mg/kg oral dose ≧4 hours before PCI followed by 2 daily doses of 5 mg/kg orally for 14 days. Compliance and reasons for discontinued treatments were recorded for all patients.
(§3) Study end points and definitions: The primary objective of the study was to evaluate the feasibility of treatment with P5P as a cardioprotective agent in high-risk elective PCI. The primary end point of infarct size was evaluated by the trapezoidal rule (Press W H, Teukolsky S A, Vetterling W T, Flannery B P. Numerical Recipes. Cambridge, UK: Cambridge University Press, 1994:127-133) using serial CK-MB enzyme measures performed at baseline and every 6 hours for 24 hours beginning immediately before initiation of PCI. The occurrence of myocardial ischemia within 24 hours after PCI was assessed as a secondary end point using continuous 12-lead electrocardiographic monitoring (Northeast Monitoring, Boston, Mass.). Evidence of periprocedural ischemia was defined as ST-segment depression of >100 μV within a 60-minute period of PCI, lasting ≧1 minute and separated from other episodes by ≧1 minute. Area under the curve ST-segment deviation was measured from the onset of the first to the last contrast injection. All cardiac markers and ST-segment monitoring data were analyzed by core laboratories blinded to treatment assignment (University of Maryland School of Medicine, Baltimore, Md.; Duke Ischemia Monitoring Laboratory, Durham, N.C.). […]

[4] = test system: patients who underwent percutaneous coronary intervention (PCI); experiment: 30-day composite and individual clinical event rates after PCI; settings: 30 days
Source text: Methods—Study Overview: 60 patients who underwent percutaneous coronary intervention (PCI) at 4 centers were randomized in a 2:1 double-blinded fashion to treatment with P5P or placebo. Inclusion criteria required prior determination for non-urgent PCI of a single-vessel lesion(s) and identification of ≧1 of the following clinical characteristics determining high risk for procedural-related ischemic complications (Califf R M, Abdelmeguid A E, Kuntz R E, Popma J J, Davidson C J, Cohen E A, Kleiman N S, Mahaffey K W, Topol E J, Pepine C J, et al. Myonecrosis after revascularization procedures. J Am Coll Cardiol 1998; 31:241-251; The ESPRIT Investigators. Novel dosing regimen of eptifibatide in planned coronary stent implantation: a randomised, placebo-controlled trial. Lancet 2000; 356:2037-2044): presence of an acute coronary syndrome (chest pain within 48 hours of PCI), recent AMI (≦7 days), diminished epicardial blood flow, angiographic thrombus, ejection fraction ≦30%, or vein graft lesion. […] Compliance and reasons for discontinued treatments were recorded for all patients.
as §1, with “injection.” for “injection. All cardiac markers and ST-segment monitoring data were analyzed by core laboratories blinded to treatment assignment (University of Maryland School of Medicine, Baltimore, Md.; Duke Ischemia Monitoring Laboratory, Durham, N.C.).”

[5] = test system: patients who underwent percutaneous coronary intervention (PCI); experiment: Periprocedural cardiac markers (serial CK-MB, troponin T) after high-risk elective PCI, P5P vs placebo
Source text: as §2, §3

[6] = test system: patients who underwent percutaneous coronary intervention (PCI); experiment: Procedural and angiographic results (investigator-reported)
Source text: as §2
Except for a higher incidence of reduced epicardial flow among control patients, baseline angiographic and procedural characteristics also appeared similar between treatment groups (Table 1). Administration of P5P or placebo occurred an average of 6.1 and 8.4 hours before PCI, respectively. Stent implantation was performed in 100% and 97.3% of the placebo and P5P treatment groups, respectively. Only 1 vein graft intervention was performed using distal embolic protection. Although the right coronary artery was most commonly treated in both groups, fewer patients treated with placebo underwent revascularization of a saphenous vein graft (Table 2). Procedural angiographic complications (e.g., major dissection, abrupt vessel closure) were infrequent (Table 2).

## CC(=O)Oc1ccccc1C(=O)O [ASA + placebo, acetylsalicylic acid]
[1]
  CK-MB max (mean): 3.41 ng/mL

## COC(=O)[C@H](c1ccccc1Cl)N1CCc2sccc2C1 [Clopidogrel + placebo, clopidogrel]
[1]
  CK-MB max (mean): 3.41 ng/mL

## Cc1ncc(COP(=O)(O)O)c(C=O)c1O [P5P, pyridoxal-5-phosphate]
[2]; median (interquartile range), 24-h continuous ST monitoring
  Area under the curve ST deviation: 1349 (951-2.263), 35 μV-min
[2]; percent of patients, within 24 h after PCI
  Any post PCI ischemia: 14.7-34%
[3]; at 7 and 30 days
  abnormalities of routine chemistries or coagulation studies versus placebo: no apparent differences
[3]; human, in vivo
  safety issues related to treatment: No safety issues
[3]; p=0.26 vs placebo
  need for blood product transfusion: 2.5%
[3]; p=0.27 vs placebo
  major bleeding: 2.8%
[3]; p=0.77 vs placebo
  patients discontinued drug therapy before completion of the prescribed 2 weeks: 30.8%
[4]
  30-day deaths: no deaths
[4]; p=1.0 vs placebo
  30-day composite adverse event rate (death, nonfatal AMI, new and/or worsening heart failure, or recurrent ischemia): 17.9%
  30-day nonfatal AMI: 12.8%
[5]; P5P vs placebo
  maximum / peak periprocedural CK-MB level versus placebo: significantly lower; also recorded: significant decrease
[5]; median (interquartile range)
  Time to peak CK-MB: 11.0 (0-18.0), 36 h
[5]; median (interquartile range), baseline to within 24 h after PCI
  change in troponin T: 0 (0-0.07), 36 ng/ml
[5]; median (interquartile range), enteric-coated P5P 10 mg/kg oral ≧4 h before PCI, then 5 mg/kg twice daily 14 days, CK-MB every 6 h for 24 h
  Area under the curve CK-MB (periprocedural infarct size): 18.6 (10.2-34.5), 35 ng/ml
[5]; median (interquartile range), periprocedural
  Peak CK-MB: 1.1 (0.5-2.4), 39 ng/ml
[6]; after PCI, n = 37
  TIMI flow final 0/1: 0 number (percent)
  TIMI flow final 2: 0 number (percent)
  TIMI flow final 3: 37 (100) number (percent)
[6]; median (interquartile range), after PCI
  Diameter stenosis final: 0 (0-0) %
[6]; n = 37
  Procedural complications: Abrupt closure: 0 number (percent)
  Procedural complications: Distal embolization: 0 number (percent)
  Procedural complications: Major dissection: 1 (3) number (percent)
  Procedural complications: No reflow: 0 number (percent)
  Procedural complications: None: 35 (95) number (percent)
  Procedural complications: Side branch closure: 1 (3) number (percent)
  Procedural complications: Thrombus formation: 0 number (percent)

## eptifibatide [Eptifibatide + placebo]
[1]
  CK-MB max (mean): 3.40 ng/mL
